Measurements from patent publication US9006171B2, “Angiotensin converting enzyme inhibitory peptide” (Kikkoman Corporation, priority 2009, dated 2015).
Non-standard residues stand in square brackets, D forms with d. Residues, ends and D or L forms follow the SMILES beside them. pGlu = O=C1CC[C@@H](C(=O)O)N1

Target: T1, ACE (rabbit lung-derived) (Oryctolagus cuniculus, UniProt P12822)
T1 construct: 0.3 U/ml of ACE (rabbit lung-derived, manufactured by SIGMA); purchased SIGMA; host or cells: rabbit lung (tissue-derived)
T1 sequence (P12822 34-1310): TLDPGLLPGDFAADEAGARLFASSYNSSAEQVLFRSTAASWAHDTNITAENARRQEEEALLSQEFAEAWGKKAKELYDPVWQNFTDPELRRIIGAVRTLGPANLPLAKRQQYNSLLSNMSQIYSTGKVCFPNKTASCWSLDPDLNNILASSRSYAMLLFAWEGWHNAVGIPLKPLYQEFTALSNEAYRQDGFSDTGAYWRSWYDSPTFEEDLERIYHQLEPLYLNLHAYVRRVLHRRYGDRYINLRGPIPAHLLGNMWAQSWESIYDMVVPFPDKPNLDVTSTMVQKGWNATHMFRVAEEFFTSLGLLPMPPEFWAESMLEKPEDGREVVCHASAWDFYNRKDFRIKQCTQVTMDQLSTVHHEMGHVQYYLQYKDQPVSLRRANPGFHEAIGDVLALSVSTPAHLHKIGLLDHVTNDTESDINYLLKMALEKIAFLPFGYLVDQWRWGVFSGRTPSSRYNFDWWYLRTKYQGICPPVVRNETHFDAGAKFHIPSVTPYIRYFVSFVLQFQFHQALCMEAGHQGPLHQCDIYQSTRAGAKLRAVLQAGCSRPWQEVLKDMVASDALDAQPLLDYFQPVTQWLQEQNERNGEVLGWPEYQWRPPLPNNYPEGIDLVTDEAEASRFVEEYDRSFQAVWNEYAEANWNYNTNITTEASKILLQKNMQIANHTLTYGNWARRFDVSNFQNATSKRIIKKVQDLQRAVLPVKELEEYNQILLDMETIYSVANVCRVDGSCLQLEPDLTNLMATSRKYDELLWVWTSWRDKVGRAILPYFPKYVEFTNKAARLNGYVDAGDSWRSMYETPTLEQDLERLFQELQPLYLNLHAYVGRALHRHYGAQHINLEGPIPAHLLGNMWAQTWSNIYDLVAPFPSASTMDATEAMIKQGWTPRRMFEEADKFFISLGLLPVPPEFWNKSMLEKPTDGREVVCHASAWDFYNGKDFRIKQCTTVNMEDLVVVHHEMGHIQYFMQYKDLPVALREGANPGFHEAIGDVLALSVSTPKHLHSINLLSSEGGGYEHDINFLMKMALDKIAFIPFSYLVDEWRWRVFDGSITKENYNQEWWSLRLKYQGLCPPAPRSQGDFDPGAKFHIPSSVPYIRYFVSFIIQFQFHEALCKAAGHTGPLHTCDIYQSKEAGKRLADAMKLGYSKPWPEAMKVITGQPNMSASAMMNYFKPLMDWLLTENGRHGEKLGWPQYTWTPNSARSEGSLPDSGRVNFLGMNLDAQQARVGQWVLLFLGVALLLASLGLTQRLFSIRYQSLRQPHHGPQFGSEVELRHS
Assay: ACE inhibitory activity (modified method of Yamamoto et al., Hippuryl-His-Leu substrate)
Format: biochemical
Details: pH 8.3, 37° C., 30 minutes, chemically synthesized peptides
Experimental: ACE inhibitory activity of the peptides obtained by the aforementioned synthesis method was measured. As the measuring method, it was carried out by a method in which the method of Yamamoto et al. (Setsuko Yamamoto et al., Journal of the Japan Society of Chest Diseases, 1980, 18, p. 297-302) was partially modified. Namely, 140 μl of sample solution, 10 μl of enzyme solution (0.3 U/ml of ACE (rabbit lung-derived, manufactured by SIGMA) and 50 mM borate buffer (pH 8.3) were added to 100 μl of a substrate solution (12.5 mM Hippuryl-His-Leu (manufactured by SIGMA), 100 mM borate buffer pH 8.3, 1M NaCl), and the reaction was carried out at 37° C. for 30 minutes. Subsequently, the reaction was stopped by adding 250 μl of 1 N hydrochloric acid and, after stirring by adding 1.5 ml of ethyl acetate and subsequent centrifugation, 1 ml of the ethyl acetate layer was concentrated and dried by centrifugal concentration followed by dissolution in 1 ml of ultrapure water to measure the absorbance at 228 nm. The ACE inhibitory ratio is represented by the following formula. ACE inhibitory ratio (%)={1−(ODs−ODsb)/(ODc−ODcb)}×100
In this connection, ODs is the absorbance when the reaction was carried out by adding the enzyme solution to a sample as described above; ODsb is the absorbance when ultrapure water was added instead of the enzyme solution; ODc is the absorbance when ultrapure water was added instead of the sample solution; and ODcb is the absorbance when ultrapure water was added instead of the enzyme solution and sample solution. Additionally, the concentration of a sample which gives 50% of the enzyme activity inhibitory ratio on this reaction system is regarded as the IC50 value.

| IC50 [µM] | Compound |
| --- | --- |
| 25 | NC(=O)C[C@H](N)C(=O)N[C@@H](Cc1c[nH]c2ccccc12)C(=O)O [Asn-Trp] (H-Asn-Trp-OH; N-terminus and C-terminus assumed) |
| 186 | O=C(O)[C@H](Cc1c[nH]c2ccccc12)NC(=O)[C@@H]1CCCN1 [Pro-Trp] (H-Pro-Trp-OH; N-terminus and C-terminus assumed) |
| 35 | C[C@@H](O)[C@H](NC(=O)[C@@H](N)Cc1ccc(O)cc1)C(=O)O [Tyr-Thr] (H-Tyr-Thr-OH) |
| 106 | O=C1CC[C@@H](C(=O)N2CCC[C@H]2C(=O)O)N1 [pyroGlu-Pro] ([pGlu]-Pro-OH; C-terminus assumed) |
